The values below come from PubChem BioAssay (NCI).

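Following 48 hours of exposure in 96-well plates, responses at five concentrations were used to interpolate endpoints linearly. TGI marks complete inhibition of growth.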

Among the test systems are A549 NSCLC; CCRF-CEM leukemia; EKVX NSCLC; HCT-116 colon; HL-60(TB) leukemia; IGROV1 ovarian; KM12 colon; M14 melanoma; MCF7 breast; MOLT-4 leukemia; OVCAR-4 ovarian; OVCAR-5 ovarian; SF-295 CNS; SK-MEL-5 melanoma; SNB-19 CNS; SNB-75 CNS; SW-620 colon; UACC-62 melanoma; HCC-2998 colon; K-562 leukemia.
Assay in all cases: NCI tumour cell line growth inhibition, 48 h

As to `Brc1ccc(-c2nc(-c3ccc(Br)cc3)n(-c3ccccc3)n2)cc1`, the TGI in the assay on A549 NSCLC, in the assay on CCRF-CEM leukemia, in the assay with EKVX NSCLC, in the assay on HCT-116 colon, in the assay with HL-60(TB) leukemia and in the assay with IGROV1 ovarian was over 100 µM each time. In addition, the TGI in the assay on KM12 colon, in the assay on M14 melanoma, with MCF7 breast, in the assay with MOLT-4 leukemia, with OVCAR-4 ovarian and in the assay on OVCAR-5 ovarian was over 100 µM in each case. Further, the TGI in the assay on SF-295 CNS, in the assay with SK-MEL-5 melanoma, in the assay with SNB-19 CNS, with SNB-75 CNS, with SW-620 colon and in the assay on UACC-62 melanoma was over 100 µM each time.
Regarding `N#Cc1c(N)nc2n[nH]c(N)c2c1-c1ccccc1`, the TGI was over 65.5 µM in the assay on A549 NSCLC; over 100 µM with CCRF-CEM leukemia; 55 µM in the assay with EKVX NSCLC; over 57 µM with HCC-2998 colon; 46.1 µM in the assay with HCT-116 colon; 71.1 µM in the assay on HL-60(TB) leukemia. Moreover, the TGI is 13.4 µM in the assay with IGROV1 ovarian; over 100 µM in the assay on K-562 leukemia; 79.5 µM in the assay on KM12 colon; 37.5 µM in the assay on M14 melanoma; 24.7 µM with MCF7 breast; 32.4 µM in the assay with MOLT-4 leukemia. Besides, the TGI with OVCAR-4 ovarian is over 100 µM; in the assay with OVCAR-5 ovarian, over 100 µM; with SF-295 CNS it was 29.7 µM; in the assay with SK-MEL-5 melanoma, 26.7 µM; in the assay with SNB-19 CNS, over 58.8 µM; with SW-620 colon, over 100 µM. The same compound displayed a TGI in the assay on UACC-62 melanoma of 8.02 µM.
On to `O=S(=O)(/N=C(\NO)Nc1ccc(Cl)cc1)c1cc(S(=O)(=O)c2ccccc2)cs1`, for which the TGI in the assay on A549 NSCLC stood at 93.1 µM; in the assay with CCRF-CEM leukemia, 43.5 µM; with EKVX NSCLC, 35.4 µM; with HCC-2998 colon it was 27.6 µM; in the assay with HCT-116 colon, 26.4 µM; in the assay on HL-60(TB) leukemia it was 7.19 µM. In addition, the TGI with IGROV1 ovarian worked out at 44.9 µM; in the assay with K-562 leukemia, 31.6 µM; in the assay with KM12 colon, 64.7 µM; in the assay on M14 melanoma, 29.2 µM; in the assay with MCF7 breast, 35.9 µM; in the assay on MOLT-4 leukemia, 39.8 µM. In addition, the TGI was determined as 57.3 µM in the assay on OVCAR-4 ovarian; 42.5 µM in the assay on OVCAR-5 ovarian; 32.7 µM in the assay on SF-295 CNS; 21.9 µM with SK-MEL-5 melanoma; 42.6 µM in the assay on SNB-19 CNS; 49.2 µM in the assay with SW-620 colon. Further, in the assay on UACC-62 melanoma, the TGI is 43.1 µM.
Consider `O=S(=O)(O)c1ccc2c(N=Nc3c(O)ccc4ccccc34)cccc2c1`, for which the TGI with A549 NSCLC, in the assay with CCRF-CEM leukemia, in the assay with EKVX NSCLC, in the assay on HCT-116 colon, in the assay on HL-60(TB) leukemia and in the assay with IGROV1 ovarian was over 100 µM throughout. The TGI in the assay on K-562 leukemia is 98.1 µM; in the assay with KM12 colon it was over 100 µM; in the assay with M14 melanoma it was over 100 µM; with MCF7 breast, over 100 µM; with OVCAR-4 ovarian, over 100 µM; in the assay with OVCAR-5 ovarian it was over 100 µM. Moreover, the TGI in the assay on SF-295 CNS, in the assay on SK-MEL-5 melanoma, in the assay on SNB-19 CNS, in the assay on SNB-75 CNS, with SW-620 colon and with UACC-62 melanoma was over 100 µM throughout.
With `CCOP(=O)(/C=C/n1cnc2c(=O)n(C(C)=O)c(N)nc21)OCC`, the TGI in the assay on A549 NSCLC, with CCRF-CEM leukemia, in the assay on EKVX NSCLC, in the assay with HCT-116 colon, with HL-60(TB) leukemia and in the assay with IGROV1 ovarian was over 100 µM throughout. Also, the TGI with K-562 leukemia, in the assay with KM12 colon, with M14 melanoma, with MCF7 breast, in the assay on MOLT-4 leukemia and in the assay with OVCAR-4 ovarian was over 100 µM throughout. Further, the TGI in the assay with OVCAR-5 ovarian, in the assay on SF-295 CNS, with SK-MEL-5 melanoma, with SNB-19 CNS, in the assay on SNB-75 CNS and in the assay on SW-620 colon was over 100 µM throughout. Further, in the assay on UACC-62 melanoma, the TGI was over 100 µM.
Turning to `CC(C)CCCC(C)[C@H]1CCC2[C@@H]3CCC4Cc5nc6c(nc5C[C@]4(C)C3CC[C@@]21C)CC1CC[C@@H]2C(CC[C@@]3(C)C2CC[C@@H]3O)[C@@]1(C)C6` (stereo partly specified), the TGI in the assay on A549 NSCLC, in the assay with CCRF-CEM leukemia, with EKVX NSCLC, in the assay on HCT-116 colon, in the assay with HL-60(TB) leukemia and with IGROV1 ovarian was over 100 µM each time. Moreover, the TGI in the assay on K-562 leukemia, in the assay with KM12 colon, in the assay with M14 melanoma, in the assay with MCF7 breast, with MOLT-4 leukemia and in the assay on OVCAR-4 ovarian was over 100 µM each time. Moreover, the TGI with OVCAR-5 ovarian, with SF-295 CNS, in the assay with SK-MEL-5 melanoma, in the assay on SNB-19 CNS, with SNB-75 CNS and with SW-620 colon was over 100 µM each time. For the same compound, the TGI in the assay with UACC-62 melanoma was over 100 µM.
Consider `COc1cccc(/C=C2/S/C(=N/Nc3nc(C)c(C(C)=O)s3)NC2=O)c1O`, for which the TGI was over 100 µM in the assay with A549 NSCLC; 50.7 µM in the assay with CCRF-CEM leukemia; 84.4 µM with EKVX NSCLC; over 100 µM in the assay with HCC-2998 colon; over 100 µM with HCT-116 colon; 46 µM with HL-60(TB) leukemia. Moreover, the TGI with IGROV1 ovarian, with K-562 leukemia, in the assay with KM12 colon, in the assay on M14 melanoma, with MCF7 breast and in the assay with OVCAR-4 ovarian was over 100 µM throughout. Besides, the TGI is 94.2 µM in the assay on OVCAR-5 ovarian; over 100 µM in the assay with SF-295 CNS; 43.5 µM with SK-MEL-5 melanoma; over 100 µM with SNB-19 CNS; over 100 µM with SNB-75 CNS; over 100 µM in the assay with SW-620 colon. This compound also returned a TGI with UACC-62 melanoma of 43.9 µM.
